Our source for the IC50 and ED50 values is ChEMBL document CHEMBL1149986, “Topical antiinflammatory dehydroabietylamine derivatives. IV” (Bioorg Med Chem Lett, 1993).

Experiment [1] deals with Phospholipase A2, major isoenzyme (Sus scrofa, UniProt P00592). Briefly: Tested for its inhibitory activity against Phospholipase A2 (PLA2). The arrangement: species or system Mus musculus.
The subject of experiment [2] is Mus musculus. Put plainly: Tested for its antiinflammatory activity in the tetradecanoyl phorbol acetate induced ear edema model (TPA Ear). It counts as functional.
Another experiment has as its target T1, Cyclooxygenase (Bos taurus, UniProt O62664+O62698).
T1 sequence (O62664 whole entry): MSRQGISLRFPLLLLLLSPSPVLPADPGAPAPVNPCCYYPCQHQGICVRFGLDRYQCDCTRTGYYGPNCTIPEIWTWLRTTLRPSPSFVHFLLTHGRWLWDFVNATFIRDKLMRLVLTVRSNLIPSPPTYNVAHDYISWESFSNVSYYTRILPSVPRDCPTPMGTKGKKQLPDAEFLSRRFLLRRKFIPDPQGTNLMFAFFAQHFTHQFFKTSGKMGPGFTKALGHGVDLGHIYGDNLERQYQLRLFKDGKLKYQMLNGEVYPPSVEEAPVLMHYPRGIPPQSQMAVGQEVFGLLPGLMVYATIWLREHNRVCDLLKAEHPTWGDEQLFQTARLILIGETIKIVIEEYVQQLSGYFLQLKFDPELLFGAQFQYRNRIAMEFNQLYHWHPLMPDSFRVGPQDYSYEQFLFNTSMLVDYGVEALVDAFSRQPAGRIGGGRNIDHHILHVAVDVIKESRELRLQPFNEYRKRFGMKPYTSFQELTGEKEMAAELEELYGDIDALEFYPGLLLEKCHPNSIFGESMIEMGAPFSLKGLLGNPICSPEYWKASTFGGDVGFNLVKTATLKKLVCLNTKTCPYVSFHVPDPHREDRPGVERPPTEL
T1 sequence (O62698 whole entry): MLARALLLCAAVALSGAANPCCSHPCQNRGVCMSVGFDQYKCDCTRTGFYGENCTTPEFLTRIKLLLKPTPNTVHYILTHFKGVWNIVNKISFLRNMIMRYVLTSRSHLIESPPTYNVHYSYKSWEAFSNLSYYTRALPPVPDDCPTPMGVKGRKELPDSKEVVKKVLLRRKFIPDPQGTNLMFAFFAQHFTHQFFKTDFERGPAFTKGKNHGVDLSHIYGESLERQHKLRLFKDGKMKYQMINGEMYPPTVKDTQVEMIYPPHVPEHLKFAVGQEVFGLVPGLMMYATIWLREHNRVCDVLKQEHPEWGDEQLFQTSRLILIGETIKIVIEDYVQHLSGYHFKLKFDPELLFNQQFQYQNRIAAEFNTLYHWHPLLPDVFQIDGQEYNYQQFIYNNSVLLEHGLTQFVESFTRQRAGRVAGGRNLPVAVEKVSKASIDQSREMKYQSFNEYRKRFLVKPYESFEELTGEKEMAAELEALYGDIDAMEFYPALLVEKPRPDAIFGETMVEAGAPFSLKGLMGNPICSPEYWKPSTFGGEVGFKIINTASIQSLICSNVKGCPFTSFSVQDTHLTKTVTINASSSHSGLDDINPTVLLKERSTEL
Briefly: Tested for its inhibitory activity against PGS (prostaglandin synthetase). It is filed as protein assay.

The subject of experiment [3] is Mus musculus. Put plainly: Tested for its antiinflammatory activity in the A-23187 (calcium ionophore) ear edema model. It is filed as functional.
In experiment [4] the test system is Mus musculus. Briefly: Tested for its antiinflammatory activity in the arachidonic acid(AA) induced ear edema model. It is filed as functional.
Experiment [5] relates to Mus musculus. Put plainly: Tested for its antiinflammatory activity in the contact sensitive (CS) ear edema model. It is filed as functional.
Experiment [6] deals with T2, Polyunsaturated fatty acid 5-lipoxygenase (Rattus norvegicus, UniProt P12527).
T2 sequence (P12527 whole entry): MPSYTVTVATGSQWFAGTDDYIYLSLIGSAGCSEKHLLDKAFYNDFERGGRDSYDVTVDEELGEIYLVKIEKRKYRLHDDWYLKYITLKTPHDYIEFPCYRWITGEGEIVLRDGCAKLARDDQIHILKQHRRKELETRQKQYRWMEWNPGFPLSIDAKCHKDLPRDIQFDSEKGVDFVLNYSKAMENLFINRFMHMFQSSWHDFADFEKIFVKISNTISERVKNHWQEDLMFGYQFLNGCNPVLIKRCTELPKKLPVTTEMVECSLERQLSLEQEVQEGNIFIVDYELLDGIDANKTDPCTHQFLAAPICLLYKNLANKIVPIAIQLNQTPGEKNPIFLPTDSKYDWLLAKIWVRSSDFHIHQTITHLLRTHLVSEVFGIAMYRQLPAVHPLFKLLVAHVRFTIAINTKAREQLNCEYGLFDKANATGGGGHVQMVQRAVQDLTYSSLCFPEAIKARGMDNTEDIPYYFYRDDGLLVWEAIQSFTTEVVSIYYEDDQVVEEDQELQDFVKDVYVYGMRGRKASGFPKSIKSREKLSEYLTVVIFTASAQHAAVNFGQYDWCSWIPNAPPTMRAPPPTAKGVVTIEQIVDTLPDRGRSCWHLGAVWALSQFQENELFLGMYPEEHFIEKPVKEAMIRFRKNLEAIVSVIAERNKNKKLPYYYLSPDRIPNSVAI
Briefly: Tested for its inhibitory activity against 5-lipoxygenase.

Bounds are passed on as bounds.

Sequence of Phospholipase A2, major isoenzyme (P00592 whole entry): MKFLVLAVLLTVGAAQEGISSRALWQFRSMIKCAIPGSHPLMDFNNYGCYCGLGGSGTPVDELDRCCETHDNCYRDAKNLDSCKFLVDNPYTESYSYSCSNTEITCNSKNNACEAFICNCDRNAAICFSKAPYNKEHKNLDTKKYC

In the case of `CCN(CC)CCCC(C)Nc1c2ccc(Cl)cc2nc2ccc(OC)cc12` (stereo unspecified) [QUINACRINE], the IC50 was 100 µM in experiment [1] and 32.6 µM on Cyclooxygenase. Also, the ED50 in the experiment on Mus musculus [2], in the experiment with Mus musculus [3] and with Mus musculus [4] was more than 100 ug ear-1 each time.
On to `CC(C)c1ccc2c(c1)CC[C@H]1C(C)(CN)CCC[C@]21C.Cl` (stereo partly specified), for which the figures for the IC50 (in experiment [1]; on Cyclooxygenase; in experiment [6]) were 21 µM, 71 µM and 8 µM, respectively. Besides, the ED50 in the experiment with Mus musculus [2] was 130.7 ug ear-1; with Mus musculus [5], 19.8 ug ear-1; in the experiment with Mus musculus [4], more than 100 ug ear-1.
Turning to `COc1ccc2c(c1)c(CC(=O)O)c(C)n2C(=O)c1ccc(Cl)cc1` [INDOMETHACIN], the ED50 in the experiment with Mus musculus [3] turned out to be 254 ug ear-1; with Mus musculus [4] it was 1000 ug ear-1. The concentration for half-maximal inhibition (IC50) in experiment [6] was more than 250 µM.
In the case of `CC(C)c1ccc2c(c1)CCC1[C@](C)(CNCC3CCCN3)CCC[C@]21C.Cl.Cl` (stereo partly specified), the concentration for half-maximal inhibition (IC50) in experiment [1] turned out to be 28 µM; on Cyclooxygenase, 62 µM. Also, the ED50 in the experiment with Mus musculus [2] is given as 18 ug ear-1; in the experiment with Mus musculus [3], 200 ug ear-1; with Mus musculus [5], 90 ug ear-1; with Mus musculus [4], more than 100 ug ear-1.
Take `C[C@@H]1C[C@H]2[C@@H]3CCC4=CC(=O)C=C[C@]4(C)[C@@]3(F)[C@@H](O)C[C@]2(C)[C@@]1(O)C(=O)CO` [DEXAMETHASONE]: the results for the concentration for half-maximal inhibition (IC50) in experiment [1] and in experiment [6] were more than 750 µM and 120 µM, respectively. The figures for the ED50 in the experiment on Mus musculus [3], with Mus musculus [5] and in the experiment on Mus musculus [4] were 0.5 ug ear-1, 0.7 ug ear-1 and more than 100 ug ear-1, respectively.
As for `CC(=O)NC(CCN(C[C@]1(C)CCC[C@]2(C)c3ccc(C(C)C)cc3CCC12)C(C)=O)c1ccc(F)cc1` (stereo partly specified), the values for the concentration for half-maximal inhibition (IC50) (in experiment [1]; at Cyclooxygenase; in experiment [6]) were 90.5 µM, 124 µM and more than 25 µM, respectively. Further, the ED50 is 10 ug ear-1 in the experiment with Mus musculus [2], 84.7 ug ear-1 with Mus musculus [3], more than 100 ug ear-1 in the experiment on Mus musculus [5] and more than 100 ug ear-1 in the experiment with Mus musculus [4].
As for `CC(C)c1ccc2c(c1)CCC1[C@](C)(CNCc3ccccc3C(=O)O)CCC[C@]21C.Cl` (stereo partly specified), the half-maximal inhibitory concentration (IC50) in experiment [1] is 34.5 µM; on Cyclooxygenase, 220 µM; in experiment [6], more than 25 µM. The ED50 is 16 ug ear-1 in the experiment with Mus musculus [2], 64.1 ug ear-1 in the experiment on Mus musculus [3], more than 100 ug ear-1 in the experiment on Mus musculus [5] and more than 100 ug ear-1 in the experiment on Mus musculus [4].
For `CC(N)CCCNC[C@]1(C)CCC[C@]2(C)c3ccc(C(C)C)cc3CCC12.Cl.Cl` (stereo partly specified), the IC50 was found to be 5.4 µM in experiment [1], 390 µM against Cyclooxygenase and 1.2 µM in experiment [6]. In addition, the ED50 with Mus musculus [2] is given as 18.8 ug ear-1; in the experiment with Mus musculus [3] it was more than 200 ug ear-1; in the experiment on Mus musculus [5] it was more than 100 ug ear-1; with Mus musculus [4] it was 100 ug ear-1.

As a reminder, the IC50 is the concentration that gives 50% inhibition. A lower IC50 goes with greater potency.
